Data as given in patent US20170312205A1, “USE OF ESTERS OF N-ACYLATED DERIVATIVES OF AMINO ACIDS AND POLYOLS AS AN ANTI-AGEING AGENT FOR HUMAN SKIN” (SOCIETE D'EXPLOITATION DE PRODUITS POUR LES INDUSTRIES …, priority 2014, published 2017).

Test system: normal human fibroblasts
Experiment: in vitro study of migration of human fibroblasts (Oris migration plates, Calcein AM labeling)
Assay type: cell-based
Settings: for mean migration distance of the cells (Dmigr): 40 hours incubation at 37° C., mitomycin C pretreated, quadruplicate; for [(Dmigr) − (Dmigr)control]/(Dmigr)control (percentage of migratory effect relative to the control): 40 hours incubation, vs FCS culture control
Excerpt: The fibroblast migration test is a test commonly used in the cosmetics and pharmaceutical sector and is especially described in the international patent application published under the number WO 2010/056908 A1. It allows in vitro reproduction of the phenomenon of fibroblast migration; a decrease in the migratory capacities of the fibroblasts being reported as associated with aging of the skin (1) (4).
Normal human fibroblasts at the R5 passage were amplified in a T75 culture flask and then inoculated at 25 000 cells/well in specific culture plates. These plates are dedicated to migration (Oris™ from Platypus), integrating a central zone without initial deposition of cells (stoppers). After 96 hours of plate amplification and 2 hours before the treatment, all the wells were treated with mitomycin C (2 hours at […]), so as to stop the cell proliferation, and thus to observe only the migration phenomenon. The stoppers were removed, and the references, the products or standard medium for fibroblasts containing 2% fetal calf serum (FCS) were applied to the cells under 100 μl, and then incubated for 40 hours at 37° C. under 5% CO2. Each condition was performed in quadruplicate.
On conclusion of the incubation, the cells were labeled with Calcein AM (5 μM, 20 minutes at 37° C.), so as to visualize the viable cells by fluorescence (revelation of the cytoplasm). Photos were taken, after having inserted a black screen under the culture plates, so as to visualize only the zone where the cells were not deposited. Thus, only the cells which had migrated were photographed (×4 objective lens; with a ×0.7 reducer on the camera adapter). The mean migration distance of the cells (Dmigr) was measured with NIS-Elements-BR 3.0 (4 cells). The means and standard deviations of the distances were calculated on the quadruplicates. The percentages of migratory effect relative to the control, and also the statistics (Student test) were also calculated.

Epidermal Growth Factor [Epidermal Growth Factor (EGF)]
mean migration distance of the cells (Dmigr) (EGF 10 ng/ml): 203 ± 20 μm
[(Dmigr) − (Dmigr)control]/(Dmigr)control (percentage of migratory effect relative to the control) (EGF 10 ng/ml): +21%
mean migration distance of the cells (Dmigr) (EGF 50 ng/ml): 212 ± 8 μm
[(Dmigr) − (Dmigr)control]/(Dmigr)control (percentage of migratory effect relative to the control) (EGF 50 ng/ml): +26%
migration distance of the fibroblasts (result in words) (EGF at 10 and 50 ng/ml with normal human fibroblasts, validates the model): increase in the migration distance
